Results: ChEMBL document CHEMBL1201862, “PubChem BioAssay data set” (2004)
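Growth conditions: 96-well plates. Treatment: test compound, 48 hours, 5 concentrations. Analysis: linear interpolation between bracketing concentrations; unreached endpoints set to highest concentration. Here, GI50 denotes the concentration required for 50% inhibition of growth.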 Calls of active or inactive are those of the source. No stated cut-off is given here; in the data, active = GI50 up to about 1.1 µM and inactive = higher.

How the values were obtained:
Assay in all cases: DTP human tumour cell line panel, 48 h
786-0 = test system: 786-0
COLO 205 = test system: COLO 205
HCT-116 = test system: HCT-116
K562 = test system: K562
M14 = test system: M14
Malme-3M = test system: Malme-3M
NCI-H460 = test system: NCI-H460
NCI-H522 = test system: NCI-H522
OVCAR-5 = test system: OVCAR-5
RPMI-8226 = test system: RPMI-8226
SF-539 = test system: SF-539
SK-MEL-28 = test system: SK-MEL-28
SK-MEL-5 = test system: SK-MEL-5
SNB-19 = test system: SNB-19
HCT-15 = test system: HCT-15

SMILES	GI50 (786-0)	GI50 (COLO 205)	GI50 (HCT-116)	GI50 (K562)	GI50 (M14)	GI50 (Malme-3M)	GI50 (NCI-H460)	GI50 (NCI-H522)	GI50 (OVCAR-5)	GI50 (RPMI-8226)	GI50 (SF-539)	GI50 (SK-MEL-28)	GI50 (SK-MEL-5)	GI50 (SNB-19)	GI50 (HCT-15)
C[N+](C)(C)CC(=O)N/N=C(/Cc1nc2ccc([N+](=O)[O-])cc2nc1O)C(=O)Nc1cc(C(F)(F)F)ccc1Cl	> 100 µM (inactive)	> 100 µM (inactive)	> 100 µM (inactive)	> 100 µM (inactive)	> 100 µM (inactive)	> 100 µM (inactive)	> 100 µM (inactive)	28.4 µM (inactive)	> 100 µM (inactive)	63.1 µM (inactive)	> 100 µM (inactive)	> 100 µM (inactive)	> 100 µM (inactive)	> 100 µM (inactive)	
O=c1c(-c2cccc3ccccc23)c(-c2cccc3ccccc23)c1=O	0.535 µM (active)	0.363 µM (active)	1.85 µM (inactive)	0.161 µM (active)	2.24 µM (inactive)	2.18 µM (inactive)	0.586 µM (active)	0.489 µM (active)	24.7 µM (inactive)	0.736 µM (active)	1.38 µM (inactive)	10.6 µM (inactive)	3 µM (inactive)	1.48 µM (inactive)	2.42 µM
CC1=C(C(=O)Nc2cc(=O)n(C)c(=O)n2C)C(c2cccc([N+](=O)[O-])c2)C(C(=O)Nc2cc(=O)n(C)c(=O)n2C)=C(C)N1	> 100 µM (inactive)	> 100 µM (inactive)		72.4 µM (inactive)	> 100 µM (inactive)	> 100 µM (inactive)	62.7 µM (inactive)	44.5 µM (inactive)	> 100 µM (inactive)	62.5 µM (inactive)	26.7 µM (inactive)	> 100 µM (inactive)	74.6 µM (inactive)	> 100 µM (inactive)	
Cc1cc(Cl)cc2c1NC(=O)C2(O)CC(=O)c1ccc(Br)cc1 (configuration not stated)	38.2 µM (inactive)	> 100 µM (inactive)	56.9 µM (inactive)	21.6 µM (inactive)	52 µM (inactive)	> 100 µM (inactive)	55.7 µM (inactive)	45.7 µM (inactive)	> 100 µM (inactive)	35 µM (inactive)	48.3 µM (inactive)	35.6 µM (inactive)	25 µM (inactive)	71 µM (inactive)	57 µM
O/N=C1/C(=C/c2ccc(Cl)c(Cl)c2)CCCC1C(NO)c1ccc(Cl)c(Cl)c1 (configuration not stated)	19.5 µM (inactive)	18.3 µM (inactive)	16.2 µM (inactive)	21.3 µM (inactive)	17.4 µM (inactive)	20 µM (inactive)	21.1 µM (inactive)	10.1 µM (inactive)		17.1 µM (inactive)	18.1 µM (inactive)	17.9 µM (inactive)	18.5 µM (inactive)	17.6 µM (inactive)	16.8 µM
Cc1c(C(=O)CC(=O)C(=O)Nc2ccc(Cl)c(Cl)c2)[n+]([O-])c2ccccc2[n+]1[O-]	25.8 µM (inactive)	19.4 µM (inactive)	19 µM (inactive)	23.8 µM (inactive)	18.1 µM (inactive)	18.8 µM (inactive)	24.7 µM (inactive)	18.9 µM (inactive)	36.4 µM (inactive)	20.8 µM (inactive)	26.9 µM (inactive)	37.9 µM (inactive)	19.5 µM (inactive)	27 µM (inactive)	20.5 µM
N#C/C(=C\c1c(O)cc(O)cc1O)C(N)=O	> 100 µM (inactive)	> 100 µM (inactive)	> 100 µM (inactive)	> 100 µM (inactive)	> 100 µM (inactive)	> 100 µM (inactive)	> 100 µM (inactive)	> 100 µM (inactive)	> 100 µM (inactive)	> 100 µM (inactive)	> 100 µM (inactive)	> 100 µM (inactive)	> 100 µM (inactive)	> 100 µM (inactive)	> 100 µM
Cc1c(Cl)c2ccccc2n1S(=O)(=O)c1ccccc1	59.6 µM (inactive)	> 100 µM (inactive)	39.2 µM (inactive)	38.5 µM (inactive)	37.8 µM (inactive)	> 100 µM (inactive)	44.6 µM (inactive)	19.6 µM (inactive)	33.5 µM (inactive)	27.8 µM (inactive)	54.1 µM (inactive)	> 100 µM (inactive)	32.4 µM (inactive)	78.7 µM (inactive)	37.3 µM
O=C1OC(=O)C([Se]c2ccccc2)=C1[Se]c1ccccc1	> 100 µM (inactive)	> 100 µM (inactive)	> 100 µM (inactive)	> 100 µM (inactive)	> 100 µM (inactive)	> 100 µM (inactive)	> 100 µM (inactive)	> 100 µM (inactive)	> 100 µM (inactive)	> 100 µM (inactive)	> 100 µM (inactive)	> 100 µM (inactive)	> 100 µM (inactive)	> 100 µM (inactive)	> 100 µM
CCCCCCN(N)C(=O)CC#N	> 100 µM (inactive)	96.2 µM (inactive)	47.6 µM (inactive)	39.6 µM (inactive)	> 100 µM (inactive)	> 100 µM (inactive)	> 100 µM (inactive)	23.9 µM (inactive)	52.2 µM (inactive)	19.8 µM (inactive)	> 100 µM (inactive)	> 100 µM (inactive)	70.6 µM (inactive)	> 10 µM (inactive)	> 100 µM
Cc1no[n+]([O-])c1/C=N/NS(=O)(=O)c1ccccc1	> 100 µM (inactive)	> 100 µM (inactive)	> 100 µM (inactive)	> 100 µM (inactive)	> 100 µM (inactive)	> 100 µM (inactive)		> 100 µM (inactive)	> 100 µM (inactive)	> 100 µM (inactive)	> 100 µM (inactive)	> 100 µM (inactive)	> 100 µM (inactive)	> 100 µM (inactive)	> 100 µM
CCOC(=O)c1c[nH]c2c(ccc3nn(C)nc32)c1=O	> 100 µM (inactive)	38.3 µM (inactive)	24.9 µM (inactive)	49.7 µM (inactive)	> 100 µM (inactive)	> 100 µM (inactive)	96.4 µM (inactive)	> 100 µM (inactive)	> 100 µM (inactive)	25.6 µM (inactive)		> 100 µM (inactive)	> 100 µM (inactive)	> 100 µM (inactive)	41 µM
CC(C(=O)c1ccc(Cl)cc1)C1OC(=O)C(Cl)=C1Cl (configuration not stated)	21.2 µM (inactive)	23.9 µM (inactive)		25.2 µM (inactive)	34.1 µM (inactive)	21.4 µM (inactive)	> 100 µM (inactive)	18.9 µM (inactive)	> 100 µM (inactive)	26.9 µM (inactive)	27.6 µM (inactive)	27.3 µM (inactive)	37.9 µM (inactive)	85.1 µM (inactive)	21.5 µM
Cc1cc(Cl)ccc1NC(=O)/C(=N\NC(C)(C)C)C(C#N)c1nc(-c2ccc([N+](=O)[O-])cc2)cs1 (configuration not stated)	> 100 µM (inactive)		> 100 µM (inactive)	> 100 µM (inactive)	> 100 µM (inactive)	> 100 µM (inactive)	> 100 µM (inactive)	> 100 µM (inactive)	> 100 µM (inactive)	> 100 µM (inactive)	> 100 µM (inactive)	> 100 µM (inactive)	> 100 µM (inactive)	> 100 µM (inactive)	> 100 µM
